From article PMC3849192, “A Simple Method for Assessing Free Brain/Free Plasma Ratios Using an In Vitro Model of the Blood Brain Barrier” (PLoS ONE, 2013)
Read-outs that look alike come from different tables or passages of the source.

Experiments:
[1] = Fraction unbound brain (fu,br), brain homogenate equilibrium dialysis
Procedure: The degree of brain binding was assessed by equilibrium dialysis. Brain homogenate (10%) was spiked with test compound at 1 µM in triplicate. […] The plate was then placed in a shaker/incubator to equilibrate for 18 hrs at 37°C. […] After the addition of 50 µl of buffer to the brain homogenate samples, 150 µl of acetonitrile was added to each sample. Finally, 50 µl of water was added to all buffer and brain homogenate samples. The plates were centrifuged and the supernatant analyzed by LC-MS/MS.

[2] = In vivo brain exposure (Cu,br/Cu,pl) under steady-state like conditions after intravenous administration; conditions: rat, i.v. bolus plus infusion; for In vivo Cu,br/Cu,pl (homog.) Mean steady-state: Cbr/Cpl x fubr/fupl with fu,br from brain homogenate; for In vivo Cu,br/Cu,pl (slice) Mean steady-state: Cbr/Cpl x fubr/fupl with fu,br from brain slice
Procedure: Rat plasma was obtained from Sprague-Dawley rats in-house. Plasma from three individuals was pooled and mixed with up to 4 compounds with a concentration of 10 µM each (in 0.1% DMSO). A 48-well dialysis apparatus (AstraZeneca, Mölndal) was used to determine the plasma free fraction. The dialysis membrane (AstraZeneca, Mölndal) was conditioned in Milli/Q water before use. […] The samples were incubated on an orbital shaker (4 mm in diameter and 100 rpm) at 37 °C for 18 hrs. […] After plasma protein precipitation by the addition of 150 µl of acetonitrile to each plasma sample in order to precipitate plasma proteins. The plates were centrifuged and the supernatant analyzed by LC-MS/MS. The fu in plasma was calculated from the ratio of the MS-area of the compound in the buffer to the MS-area of the compound in the plasma.
The CNS exposure of 92 compounds (i.e 30 drugs and 62 proprietary compounds) was assessed under steady-state like conditions after intravenous administration. The time to approach steady-state (taken as at least 3.5 half-lives) was determined from prior studies of the pharmacokinetics of individual compounds after intravenous administration. The rats were put in restraint cages and cannulated via the tail vein. On the day of the experiment, the rats received a bolus injection followed by infusion. The infusion rate and infusion time were determined separately for each compound. The test formulation was administered using an infusion pump (CMA/100 or Univentor 400 microinjection pump).
Blood samples (400 µL) were collected by rapidly anaesthetizing the rats and keeping them under anesthesia with isofluran. Blood was collected either through heart puncture, from the tail vein or the orbital venous plexus and put into EDTA tubes, which were immediately placed on ice and centrifuged within 30 min at 4°C for 5 min at 2000 g to obtain plasma. The plasma was transferred by glass or plastic pipettes to 1.5 ml MTP system topaz vials and immediately frozen to −70°C or lower and stored at −20°C until assayed.
After blood collection, the whole brain was rapidly removed from the animal skull and weighed after which it was frozen and stored at −20°C. Before analysis with LC-MS/MS, the brain samples were sonicated (SONICS Vibracell VCX 130) in Ringer solution (2-fold the brain weight; e.g. 1 gram brain plus 2 mL Ringer).
The unbound brain exposure was assessed as Cu,br/Cu,pl, which is the free brain-free plasma concentration ratio. The Cu,br/Cu,pl ratios were obtained from total brain plasma ratios (Ctot,br/Ctot,pl) by using in vitro determined fu,br and fu,pl values according to: [drawing 4]
Brain concentrations were corrected for residual blood volume using 13 µl/g based on the vascular space of the marker [14C]-sucrose.

[3] = Fraction unbound brain (fu,br), brain slice method
Procedure: Rats (male Sprague-Dawley) were decapitated under isoflurane anesthesia and the brains were removed carefully and immersed in ice-cold oxygenated physiological buffer at pH7.4. A 6 mm coronal section was cut with a razor and mounted with cyanoacrylate glue onto the tray of the microslicer (DTK-Zero 1 Microslicer, Dosak) after which six to eight 300 µm coronal slices from striatal areas were prepared. […] The compounds were dissolved at 1 µM in the buffer and the solution was incubated with the slice for 5 h.
After 5 h, the brain slices were weighed and homogenized in 9 volumes (w/v) of ECF buffer with a sonicator (SONICS VCX 500 and VCX 130). The slice homogenates in ECF buffer were stored at −20°C prior to analysis. The concentrations of the test compound in the brain slice homogenate and in the ECF buffer was determined by LC-MS/MS.
The unbound volume of distribution Vu,brain, or free fraction fu,brain was calculated according to the following equations: [drawing 1] [drawing 2] where Cslice, CECF and V0 are amount of drug in the slice, the drug concentration in the ECF (representing the drug concentration in the brain ECF, i.e. the free concentration), and the water adhesion of the brain slice. V0 has been estimated using ^14C -inulin in a separate experiment in which brain slices were incubated for 1, 2, and 4 min. V0 was obtained from brain slice uptake – inulin time profile (apparent zero-time intercept).

[4] = tested on: in vitro BBB model (co-culture of bovine brain capillary endothelial cells and rat glial cells); assay: In vitro BBB co-culture model, Cu,br/Cu,pl ratio; conditions: for In vitro Cu,br/Cu,pl Mean 1 h: 2 µM in luminal compartment, abluminal/luminal concentration at 1 h; for In vitro Cu,br/Cu,pl Mean steady-state: steady-state ratio computed from 1 h data with the blue-norna steady-state calculator
Procedure: Figure 1 Schematic diagram of the experimental protocol. After 12 days of coculture in cell culture medium, both compartments of the in vitro BBB model consisting of a coculture of brain capillary endothlial cells and rat primary glial cells were filled with Hepes-buffered Ringer’s solution and the compounds dissolved at 2 µM were added in the luminal compartment (i.e donor). The presence of glial cells in the abluminal compartment was used to reproduce the non specific binding to brain tisssue within the brain prenchyma in vivo. After 1 hour, aliquots were taken from both compartments. In vitro Cu,br/Cu,pl at 1 h were calculated by dividing the concentration in the abluminal compartment (∼Cu,br) by the concentration in the luminal compartment (∼Cu,pl) at 1 h. The experimental data at 1 h were computed using the blue-norna steady-state calculator to generate the in vitro steady-state Cu,br/Cu,pl.
One hour after the addition of compounds dissolved at 2 µM in the luminal (i.e upper) compartment, aliquots were taken from both compartments previously filled with Hepes-buffered Ringer’s solution at the beginning of the experiment. […] The concentrations in both compartments of the in vitro assay after 1 h were computed using […] blue-norna.com to generate the in vitro steady-state Cu,br/Cu,pl.
The method of Dehouck et al. was used with minor modifications (Fig. 1). Bovine brain endothelial cells isolated from capillary fragments were cocultured with primary mixed glial cells from newborn Sprague–Dawley rats. The glial cells were isolated according to the method of Booher and Sensenbrenner and cultured for 3 weeks, plated on the bottom of cell culture clusters containing six wells each. The endothelial cells were seeded onto collagen-coated polycarbonate cell culture inserts (4.7 cm^2) (Corning Incorp. NY, USA), which were placed in the wells containing glial cells. The medium used for the coculture was Dulbecco’s modified Eagle’s medium supplemented with 10% calf serum, 10% horse serum, 2 mmol/L glutamine, 50 mg/L gentamicin and 1 µg/L basic fibroblast growth factor (Sigma). The medium was changed every second day. Experiments were usually initiated after 12 days of co-culture.
To monitor the integrity of the endothelial cell monolayer, the marker molecule [^14C] sucrose was added to the solution at a concentration of 0.05 µCi/ml. At the start of the transport experiments, buffered Ringer’s solution (pH = 7.4) was added to wells with glial cells. Inserts with brain endothelial cells were placed in these wells and drug solutions at 2 µM were added to the donor compartment. The plates were incubated for 1 h in a polymix shaker at 37°C with a low shaking velocity. Aliquots were taken from the donor compartment in the beginning and at the end of the experiments. The receiver compartments were sampled at the end of the experiments.
The amount of radiotracer in the abluminal compartment was measured in a liquid scintillation analyser (Packard Instrument Company, Meriden, USA). […] The concentrations of the test compound in all samples were analysed by MS/MS.
The mean free brain/plasma ratios were calculated from three individual experiments. One hour ratios were calculated by dividing the drug concentration in the receiver compartment by the free drug concentration in the donor compartment after 1 h. The experimental data at one hour (i.e concentration in both compartment at the beginning of the experiment and after 1 h) were computed using the blue-norna® steady-state calculator (www.blue-norna.com) to predict the in vivo steady-state Cu,br/Cu,pl ratios. For further details on this calculation method see file S1.
The in vivo steady-state Cu,br/Cu,pl were predicted from the in vitro experimental data collected after one hour according to the following equation: […]
Cdonor, t and Creceiver, t are the concentration of drug in the donor and receiver chambers at time t.

[5] = brain homogenate (10%), 1 µM, equilibrium dialysis 18 hrs at 37°C
[6] = rat brain slices 300 µm, 1 µM, 5 h incubation

SMILES | fubrain (homog.) Mean [1, 5] | In vivo Cu,br/Cu,pl (homog.) Mean steady-state [2] | In vivo Cu,br/Cu,pl (slice) Mean steady-state [2] | fubrain (slice) Mean [3, 6] | In vitro Cu,br/Cu,pl Mean 1 h [4] | In vitro Cu,br/Cu,pl Mean steady-state [4] | fubrain (homog.) Mean [1] | fubrain (slice) Mean [3] | fubrain (slice) Mean ([3]; male, Sprague-Dawley, rat)
CC(NC(C)(C)C)C(=O)c1cccc(Cl)c1 (centres unmarked) [Buproprion] | 0.1710 | 1.07 | 1.00 | 0.1600 | 0.24 | 0.51 | – | – | –
Fc1ccc([C@@H]2CCNC[C@H]2COc2ccc3c(c2)OCO3)cc1 [Paroxetin] | – | 0.86 | 0.53 | – | 0.08 | 0.79 | 0.0039 | 0.0024 | –
CN1CCN(CCCN2c3ccccc3Sc3ccc(C(F)(F)F)cc32)CC1 [Trifluoperazine] | 0.0007 | – | – | 0.0007 | 0.09 | 0.71 | – | – | –
Cc1ccc(-c2nc3ccc(C)cn3c2CC(=O)N(C)C)cc1 [Zolpidem] | – | – | – | – | 0.25 | 0.49 | 0.2000 | – | 0.3500
